In brackets after ≈: the same amount, converted by molar mass. Where two headings read alike, the source gives them in different places.
Experiments:
[1] = test system: VISA clinical isolates of MRSA (VI-MRSA) and of MSSA (VI-MSSA); assay: microbe, parasite or virus in culture; type: cell-based, Staphylococcus aureus
Summary of the method: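 Strains were grown overnight at 37° C in TSB, adjusted in CAMHB to 0.3 absorbance at 578 nm and diluted 500-fold before equal-volume addition to compound dilutions.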

[2] = test system: methicillin-susceptible S. aureus (MSSA), MRSA and mutants thereof; assay: MIC measurement, Test Example 3 (MSSA, MRSA and sequential gyrA/grlA quinolone-resistant mutants); type: cell-based, Staphylococcus aureus; conditions: Staphylococcus aureus
Summary of the method: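 Clinical isolates and stepwise gyrA/grlA quinolone-resistant mutants grown overnight at 37° C in TSB, adjusted to A578 0.3 in CAMHB, diluted 500-fold and mixed 1:1 with drug dilutions in CAMHB.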

[3] = test system: MRSA, CA-MRSA and MSSA of Staphylococcus aureus; assay: MIC measurement, Test Example 4 (MRSA, CA-MRSA and MSSA strains); type: cell-based; conditions: Staphylococcus aureus
Summary of the method: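 S. aureus strains (FDA209P control) grown overnight in TSB at 37° C, resuspended in CAMHB, adjusted to A578 0.3 and diluted 500-fold. Equal volume added to CAMHB with serial compound concentrations, incubated statically overnight at 37° C. MIC read visually as lowest concentration without turbidity.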

Enterococcus faecalis = assay: MIC measurement, Test Example 6 (enterococcus); type: cell-based; conditions: Enterococcus faecalis, read-out: MIC
Summary of the method: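 E. faecalis strains, including vancomycin-resistant NCTC12201 and NCTC12203, pre-grown overnight in TSB at 37° C, set to A578 0.3 in CAMHB, then diluted 500-fold.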

CCn1cc(C(=O)O)c(=O)c2cc(F)c(N3CCNCC3)cc21 [NFLX, norfloxacin]
MIC ([1]; Staphylococcus aureus, 99/3700-W, VI-MRSA, The United Kingdom): 64 µg/mL (≈ 200 µM)
MIC ([1]; Staphylococcus aureus, 99/3759-V, VI-MRSA, The United Kingdom): 128 µg/mL (≈ 401 µM)
MIC ([1]; Staphylococcus aureus, 28160, VI-MRSA, South African Republic): 64 µg/mL (≈ 200 µM)
MIC ([1]; Staphylococcus aureus, 98141, VI-MRSA, France): 64 µg/mL (≈ 200 µM)
MIC ([1]; Staphylococcus aureus, A7 (JCSC4842), VI-MRSA, Taiwan): 32 µg/mL (≈ 100 µM)
MIC ([1]; Staphylococcus aureus, AMC11094, VI-MRSA, Korea): 128 µg/mL (≈ 401 µM)
MIC ([1]; Staphylococcus aureus, B7 (JCSC4852), VI-MRSA, Taiwan): 64 µg/mL (≈ 200 µM)
MIC ([1]; Staphylococcus aureus, BR1, VI-MRSA, Brazil): 128 µg/mL (≈ 401 µM)
MIC ([1]; Staphylococcus aureus, BR2, VI-MRSA, Brazil): 64 µg/mL (≈ 200 µM)
MIC ([1]; Staphylococcus aureus, BR3, VI-MRSA, Brazil): 64 µg/mL (≈ 200 µM)
MIC ([1]; Staphylococcus aureus, BR4, VI-MRSA, Brazil): 128 µg/mL (≈ 401 µM)
MIC ([1]; Staphylococcus aureus, BR5, VI-MRSA, Brazil): 128 µg/mL (≈ 401 µM)
MIC ([1]; Staphylococcus aureus, HIP06297, VI-MRSA, America): 64 µg/mL (≈ 200 µM)
MIC ([1]; Staphylococcus aureus, HIP06854, VI-MRSA, America): 128 µg/mL (≈ 401 µM)
MIC ([1]; Staphylococcus aureus, HIP07920, VI-MRSA, America): 16 µg/mL (≈ 50.1 µM)
MIC ([1]; Staphylococcus aureus, HIP07930, VI-MRSA, America): 128 µg/mL (≈ 401 µM)
MIC ([1]; Staphylococcus aureus, HIP08926, VI-MRSA, America): 64 µg/mL (≈ 200 µM)
MIC ([1]; Staphylococcus aureus, HIP09143, VI-MRSA, America): > 128 µg/mL
MIC ([1]; Staphylococcus aureus, HIP09313, VI-MRSA, America): 32 µg/mL (≈ 100 µM)
MIC ([1]; Staphylococcus aureus, HIP09433, VI-MRSA, America): > 128 µg/mL
MIC ([1]; Staphylococcus aureus, HIP09662, VI-MRSA, America): 64 µg/mL (≈ 200 µM)
MIC ([1]; Staphylococcus aureus, HIP09735, VI-MRSA, America): > 128 µg/mL
MIC ([1]; Staphylococcus aureus, HIP09737, VI-MSSA, America): > 128 µg/mL
MIC ([1]; Staphylococcus aureus, HIP09740, VI-MRSA, America): > 128 µg/mL
MIC ([1]; Staphylococcus aureus, HIP10267, VI-MRSA, America): > 128 µg/mL
MIC ([1]; Staphylococcus aureus, HIP10540, VI-MRSA, America): > 128 µg/mL
MIC ([1]; Staphylococcus aureus, HIP12864, VI-MRSA, America): 64 µg/mL (≈ 200 µM)
MIC ([1]; Staphylococcus aureus, HIP13036, VI-MRSA, America): 16 µg/mL (≈ 50.1 µM)
MIC ([1]; Staphylococcus aureus, HIP13057, VI-MRSA, America): 128 µg/mL (≈ 401 µM)
MIC ([1]; Staphylococcus aureus, IL (HIP7737), VI-MRSA, America): > 128 µg/mL
MIC ([1]; Staphylococcus aureus, JCSC7193, VI-MRSA, Thailand): 64 µg/mL (≈ 200 µM)
MIC ([1]; Staphylococcus aureus, JCSC7195, VI-MRSA, Thailand): 128 µg/mL (≈ 401 µM)
MIC ([1]; Staphylococcus aureus, JCSC7203, VI-MRSA, Thailand): 64 µg/mL (≈ 200 µM)
MIC ([1]; Staphylococcus aureus, LIM2, VI-MRSA, France): 128 µg/mL (≈ 401 µM)
MIC ([1]; Staphylococcus aureus, LY-1999-01, VI-MSSA, Oman): 16 µg/mL (≈ 50.1 µM)
MIC ([1]; Staphylococcus aureus, LY-1999-03, VI-MRSA, Oman): 64 µg/mL (≈ 200 µM)
MIC ([1]; Staphylococcus aureus, MI (HIP5827), VI-MRSA, America): 128 µg/mL (≈ 401 µM)
MIC ([1]; Staphylococcus aureus, MRSA / MSSA / NRS 76 / VISA, NRS76, VI-MSSA, America): 128 µg/mL (≈ 401 µM)
MIC ([1]; Staphylococcus aureus, MRSA / MSSA / NRS 79 / VISA, NRS79, VI-MRSA, America): > 128 µg/mL
MIC ([1]; Staphylococcus aureus, MRSA / MSSA / NRS 118 / VISA, NRS118, VI-MRSA, America): 128 µg/mL (≈ 401 µM)
MIC ([1]; Staphylococcus aureus, MRSA / MSSA / NRS 126 / VISA, NRS126, VI-MRSA, America): 64 µg/mL (≈ 200 µM)
MIC ([1]; Staphylococcus aureus, Mu3, VI-MRSA, Japan): 128 µg/mL (≈ 401 µM)
MIC ([1]; Staphylococcus aureus, Mu50, VI-MRSA, Japan): 128 µg/mL (≈ 401 µM)
MIC ([1]; Staphylococcus aureus, NJ (HIP5836), VI-MRSA, America): 128 µg/mL (≈ 401 µM)
MIC ([1]; Staphylococcus aureus, P1V44, VI-MSSA, Belgium): 4 µg/mL (≈ 12.5 µM)
MIC ([1]; Staphylococcus aureus, PC, VI-MRSA, America): 64 µg/mL (≈ 200 µM)
MIC ([1]; Staphylococcus aureus, SA MER-S6, VI-MSSA, France): 2 µg/mL (≈ 6.26 µM)
MIC ([1]; Staphylococcus aureus, SA MER-S12, VI-MSSA, France): 2 µg/mL (≈ 6.26 µM)
MIC ([1]; Staphylococcus aureus, SA MER-S20, VI-MSSA, France): 0.5 µg/mL (≈ 1.57 µM)
MIC ([2]; MR5867-2, second-step mutant, further gyrA S84L): 64 µg/mL (≈ 200 µM)
MIC ([2]; MR5867-3, third-step mutant, further grlA S80F): > 128 µg/mL
MIC ([2]; MR5867-4, fourth-step mutant, further gyrA E88K): > 128 µg/mL
MIC ([3]; ATCC 29213 / MRSA / MSSA, ATCC 29213, MSSA): 1 µg/mL (≈ 3.13 µM)
MIC ([3]; COL, MRSA): 1 µg/mL (≈ 3.13 µM)
MIC ([3]; FDA209P / MRSA / MSSA, FDA209P, MSSA): 0.25 µg/mL (≈ 0.783 µM)
MIC ([3]; ISA12-1, MRSA): 1 µg/mL (≈ 3.13 µM)
MIC ([3]; ISA12-2, MRSA): 1 µg/mL (≈ 3.13 µM)
MIC ([3]; ISA35-1, MRSA): 16 µg/mL (≈ 50.1 µM)
MIC ([3]; ISA37-1, MSSA): 1 µg/mL (≈ 3.13 µM)
MIC ([3]; ISA49-1, MSSA): 1 µg/mL (≈ 3.13 µM)
MIC ([3]; ISA51-1, MSSA): 0.5 µg/mL (≈ 1.57 µM)
MIC ([3]; ISA56-3, MRSA): 0.25 µg/mL (≈ 0.783 µM)
MIC ([3]; ISA58-1, MRSA): 1 µg/mL (≈ 3.13 µM)
MIC ([3]; ISA62-1, MRSA): 1 µg/mL (≈ 3.13 µM)
MIC ([3]; ISA73-1, MSSA): 1 µg/mL (≈ 3.13 µM)
MIC ([3]; KBSA32, MRSA): 0.5 µg/mL (≈ 1.57 µM)
MIC ([3]; KBSA34, MRSA): 1 µg/mL (≈ 3.13 µM)
MIC ([3]; KBSA72, MRSA): > 128 µg/mL
MIC ([3]; KBSA96, MRSA): 128 µg/mL (≈ 401 µM)
MIC ([3]; KBSA171, MRSA): > 128 µg/mL
MIC ([3]; KSA24, MRSA): 128 µg/mL (≈ 401 µM)
MIC ([3]; KSA31, MRSA): 32 µg/mL (≈ 100 µM)
MIC ([3]; KSA36, MRSA): > 128 µg/mL
MIC ([3]; MRSA / MSSA / NCTC 8325, NCTC 8325, MSSA): 1 µg/mL (≈ 3.13 µM)
MIC ([3]; MRSA / MSSA / USA300, USA300 FPR3757, CA-MRSA): 32 µg/mL (≈ 100 µM)
MIC ([3]; MW2, CA-MRSA): 0.5 µg/mL (≈ 1.57 µM)
MIC ([3]; N315, MRSA): 1 µg/mL (≈ 3.13 µM)
MIC (Enterococcus faecalis; E. faecalis 36-15672, quinolone-susceptible enterococci): 4 µg/mL (≈ 12.5 µM)
MIC (Enterococcus faecalis; E. faecalis 36-15673, quinolone-susceptible enterococci): 4 µg/mL (≈ 12.5 µM)
MIC (Enterococcus faecalis; E. faecalis 36-15678, quinolone-susceptible enterococci): 4 µg/mL (≈ 12.5 µM)
MIC (Enterococcus faecalis; E. faecalis 36-15686, quinolone-resistant enterococci): > 128 µg/mL
MIC (Enterococcus faecalis; E. faecalis 36-15688, quinolone-susceptible enterococci): 2 µg/mL (≈ 6.26 µM)
MIC (Enterococcus faecalis; E. faecalis 36-15694, quinolone-resistant enterococci): > 128 µg/mL
MIC (Enterococcus faecalis; E. faecalis 36-15696, quinolone-susceptible enterococci): 4 µg/mL (≈ 12.5 µM)
MIC (Enterococcus faecalis; E. faecalis 36-15703, quinolone-resistant enterococci): 64 µg/mL (≈ 200 µM)
MIC (Enterococcus faecalis; E. faecalis 36-15716, quinolone-resistant enterococci): > 128 µg/mL
MIC (Enterococcus faecalis; E. faecalis 36-15718, quinolone-susceptible enterococci): 4 µg/mL (≈ 12.5 µM)
MIC (Enterococcus faecalis; E. faecalis 36-15720, quinolone-susceptible enterococci): 8 µg/mL (≈ 25.1 µM)
MIC (Enterococcus faecalis; E. faecalis 36-15722, quinolone-resistant enterococci): 128 µg/mL (≈ 401 µM)
MIC (Enterococcus faecalis; E. faecalis 36-15726, quinolone-resistant enterococci): 128 µg/mL (≈ 401 µM)
MIC (Enterococcus faecalis; E. faecalis 36-15730, quinolone-susceptible enterococci): 8 µg/mL (≈ 25.1 µM)
MIC (Enterococcus faecalis; E. faecalis 36-15736, quinolone-susceptible enterococci): 4 µg/mL (≈ 12.5 µM)
MIC (Enterococcus faecalis; E. faecalis 36-15741, quinolone-susceptible enterococci): 4 µg/mL (≈ 12.5 µM)
MIC (Enterococcus faecalis; NCTC 12201 / VRE, E. faecalis NCTC12201, vancomycin-resistant (VRE), quinolone-susceptible enterococci): 2 µg/mL (≈ 6.26 µM)
MIC (Enterococcus faecalis; NCTC 12203 / VRE, E. faecalis NCTC12203, vancomycin-resistant (VRE), quinolone-susceptible enterococci): 2 µg/mL (≈ 6.26 µM)
